Measurements taken from US20260028344A1, “CRYSTALLINE FORMS OF LANRAPLENIB AND METHODS OF MAKING AND USING THE SAME” (Kronos Bio, Inc., priority 2022, published 2026).

Experiment: Solubility / biopharmaceutical classification (BCS) of lanraplenib
Type: physicochemical
Details: in physiological conditions

solubility: low
Compound: Nc1cncc(-c2cn3ccnc3c(Nc3ccc(N4CCN(C5COC5)CC4)cc3)n2)n1 [Lanraplenib]
